{
  "source": "ChEMBL document CHEMBL1159371",
  "about": "“Trisphaerolide A, a novel polyketide from the Dominican sponge Erylus trisphaerus” (J Nat Prod, 2003)",
  "key": {"MCF7 [1]": {"tested_on": "MCF7", "assay": "Cell cycle arrest in human MCF7 cells by G2 checkpoint inhibition assay", "type": "functional, cell-based"}, "MCF7 [2]": {"tested_on": "MCF7", "assay": "Cytotoxicity against human MCF7 cells", "type": "functional, cell-based"}},
  "note": "The source made the active and inactive calls. The calls are words filed in the database; no cut-off is given here.",
  "data": [
    {"smiles": "C[C@]1(O)CC(=O)O[C@](C)(CCCCCCCCC/C=C/Cc2ccccc2)C1", "note": "[TRISPHAEROLIDE A]", "values": [
      {"measurement": "Activity", "setting": "MCF7 [1]", "value": "inactive"},
      {"measurement": "IC50", "setting": "MCF7 [2]", "value": 30, "unit": "µg/mL"}
    ]}
  ]
}
